{
  "source": "patent US10640457B2",
  "about": "“Histone acetyltransferase activators and uses thereof” (The Trustees of Columbia University in the City of New York, priority 2009, dated 2020)",
  "key": {"[1]": {"target": "T1, Sirtuin 2 (Homo sapiens, UniProt Q8IXJ6)", "T1 sequence (Q8IXJ6 1-389)": "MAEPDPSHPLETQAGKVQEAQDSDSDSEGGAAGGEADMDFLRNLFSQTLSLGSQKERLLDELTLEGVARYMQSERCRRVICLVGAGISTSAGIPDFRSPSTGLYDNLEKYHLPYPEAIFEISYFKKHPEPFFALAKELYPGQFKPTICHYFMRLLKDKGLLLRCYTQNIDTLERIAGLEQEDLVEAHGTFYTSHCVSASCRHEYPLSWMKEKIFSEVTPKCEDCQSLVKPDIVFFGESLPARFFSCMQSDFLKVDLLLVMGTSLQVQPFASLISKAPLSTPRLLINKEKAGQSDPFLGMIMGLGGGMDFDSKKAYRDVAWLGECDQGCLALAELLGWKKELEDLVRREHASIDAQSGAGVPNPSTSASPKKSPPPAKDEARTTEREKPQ", "assay": "Sirtuin 2 fluorogenic activity assay", "conditions": "for % Activity: Repeat1/Repeat2, listed as OA2"}, "[2]": {"system": "APP/PS1 mice", "assay": "RAWM and fear conditioning in APP/PS1 mice (YF2)", "type": "in vivo", "from_the_text": "Without being bound by theory, given that these experiments were obtained with a synthetic preparation of Aβ42, it is difficult to know if this is the same as Aβ that causes synaptic dysfunction in AD brains. Thus, we validated these experiments in an Aβ-depositing mouse model, the APP/PS1 mouse^[P35] (herein incorporated by reference in its entirety). These mice have been well characterized with respect to AD pathology^[P34-38] (each herein incorporated by reference in its entirety). They start to show synaptic and memory impairment as early as 3 months of age^[P34] (herein incorporated by reference in its entirety). Transgenic mice with a double mutation APP […]/PS1(M146L) (line 6.2) start to develop large plaques in cortex and hippocampus at the age of 8-10 weeks. They have a reduction in LTP by 3 months of age together with impairment of contextual fear memory and spatial working memory."}, "[3]": {"target": "T2, HDAC7 (Homo sapiens, UniProt Q8WUI4)", "T2 sequence (Q8WUI4 518-952 limits assumed)": "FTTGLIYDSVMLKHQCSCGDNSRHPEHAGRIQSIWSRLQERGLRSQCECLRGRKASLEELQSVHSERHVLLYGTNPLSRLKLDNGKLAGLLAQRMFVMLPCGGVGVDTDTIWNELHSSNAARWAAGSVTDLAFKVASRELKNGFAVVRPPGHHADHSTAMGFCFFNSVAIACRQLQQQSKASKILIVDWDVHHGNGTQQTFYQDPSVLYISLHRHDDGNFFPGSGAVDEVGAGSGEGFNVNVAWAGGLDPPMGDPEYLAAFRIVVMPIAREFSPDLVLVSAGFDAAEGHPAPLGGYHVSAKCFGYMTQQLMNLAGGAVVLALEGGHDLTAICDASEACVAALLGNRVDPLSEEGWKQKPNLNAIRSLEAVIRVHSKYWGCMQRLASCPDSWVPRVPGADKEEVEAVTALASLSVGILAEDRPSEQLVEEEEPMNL", "assay": "HDAC7 fluorogenic activity assay", "conditions": "Repeat1/Repeat2, listed as OA2"}, "[4]": {"assay": "Kinetics of YF2 in tail blood", "type": "in vivo, mice", "conditions": "20 mg/kg i.p.", "procedure": "To this purpose, we administered the compound (20 mg/kg. i.p.) and then sampled blood from tails at different time points."}},
  "note": "pIC50: −log10 of the molar value. Values joined by “and” are separate entries in the source; they are usually repeats but may differ in a detail not shown here. Identical values can stand only once. “Also recorded” adds a separate entry of the source.",
  "data": [
    {"smiles": "CCOc1cccc(OCCN(C)C)c1C(=O)Nc1ccc(Cl)c(C(F)(F)F)c1", "note": "[YF2]", "values": [
      {"measurement": "pIC50", "setting": "[1]", "result": "< 3.70"},
      {"measurement": "% Activity", "setting": "[1]; OA2 Log[nM] 0.5", "result": "97.71% and 101.89%"},
      {"measurement": "% Activity", "setting": "[1]; OA2 Log[nM] 1.0", "result": "96.21% and 97.38%"},
      {"measurement": "% Activity", "setting": "[1]; OA2 Log[nM] 1.5", "result": "98.59% and 101.33%"},
      {"measurement": "% Activity", "setting": "[1]; OA2 Log[nM] 2.0", "result": "94.20% and 99.91%"},
      {"measurement": "% Activity", "setting": "[1]; OA2 Log[nM] 2.5", "result": "94.74% and 96.43%"},
      {"measurement": "% Activity", "setting": "[1]; OA2 Log[nM] 3.0", "result": "94.53% and 98.73%"},
      {"measurement": "% Activity", "setting": "[1]; OA2 Log[nM] 3.5", "result": "96.80% and 98.23%"},
      {"measurement": "% Activity", "setting": "[1]; OA2 Log[nM] 4.0", "result": "97.71% and 98.83%"},
      {"measurement": "% Activity", "setting": "[1]; OA2 Log[nM] 4.5", "result": "92.45% and 95.14%"},
      {"measurement": "% Activity", "setting": "[1]; OA2 Log[nM] 5.3", "result": "98.64% and 99.53%"},
      {"measurement": "reference memory defect (RAWM)", "setting": "[2]; APP/PS1 mice, 20 mg/Kg i.p. 30 min before 1st and 2nd group of tests, 20 mg/kg", "result": "ameliorates; also recorded: rescued"},
      {"measurement": "contextual fear memory deficit", "setting": "[2]; APP/PS1 mice, 20 mg/Kg i.p. 30 min before training for FC, 20 mg/kg", "result": "ameliorates"},
      {"measurement": "memory in WT mice", "setting": "[2]; WT littermates, 20 mg/Kg i.p.", "result": "without affecting"},
      {"measurement": "% Activity", "setting": "[3]; OA2 Log[nM] 0.5", "result": "103.11% and 97.69%"},
      {"measurement": "% Activity", "setting": "[3]; OA2 Log[nM] 1.0", "result": "91.37% and 91.47%"},
      {"measurement": "% Activity", "setting": "[3]; OA2 Log[nM] 1.5", "result": "101.63% and 104.98%"},
      {"measurement": "% Activity", "setting": "[3]; OA2 Log[nM] 2.0", "result": "104.61% and 97.68%"},
      {"measurement": "% Activity", "setting": "[3]; OA2 Log[nM] 2.5", "result": "95.80% and 95.75%"},
      {"measurement": "% Activity", "setting": "[3]; OA2 Log[nM] 3.0", "result": "96.02% and 98.69%"},
      {"measurement": "% Activity", "setting": "[3]; OA2 Log[nM] 3.5", "result": "100.73% and 92.77%"},
      {"measurement": "% Activity", "setting": "[3]; OA2 Log[nM] 4.0", "result": "90.73% and 101.73%"},
      {"measurement": "% Activity", "setting": "[3]; OA2 Log[nM] 4.5", "result": "95.78% and 99.80%"},
      {"measurement": "% Activity", "setting": "[3]; OA2 Log[nM] 5.3", "result": "96.89% and 100.04%"},
      {"measurement": "time of peak in blood post-injection", "setting": "[4]", "result": "around 30 minutes"}
    ]}
  ]
}
